Results published in patent US5053070A, “Pyrimidine derivatives, preparation processes thereof, herbicide containing the same, and herbicidal compositions containing the same along with other active ingredient” (Mitsui Toatsu Chemicals, Incorporated, priority 1988, dated 1991).
In brackets after ≈: the same amount, converted by molar mass.

Columns and labels:
Type in all cases: in vivo
[1] = tested on: barnyardgrass; assay: Upland soil application test (Test 2); conditions: 30 g ai/a, soil spray before emergence, 30 days later
Protocol: (§1) Resin-made 1/2500-are pots were filled with the soil of an upland field. After they were fertilized, soybean, peanut and cotton were seeded and 2-3 cm soil covering was applied. Seeds of redroot pigweed, common lambsquarters, barnyardgrass, green foxtail, large crabgrass, foxtail meadow and johnsongrass had been uniformly mixed with the soil. They were allowed to germinate in a green house. One day later (before emergence of weeds), a wettable powder prepared from a predetermined amount of each test compound in a similar manner to the method described in Formulation Example 1 was diluted with water and then sprayed evenly at an application rate equal to 10 l per are onto the surface of the soil by means of a pressure-operated ULV (ultra low volume) sprayer. Influence to the crops and weeds were observed 30 days later. The results are shown in Table 3, in which the degree of damages of each test plant and the degree of injury to each crop were determined by comparing the air-dried weights of the test plant and crop with those of the corresponding plant and crop in untreated pots and are shown in accordance with the following standard: […]

[2] = tested on: common lambsquarters; assay: Upland soil application test (Test 2); conditions: 30 g ai/a, soil spray before emergence, 30 days later
Protocol: as §1

[3] = tested on: foxtail meadow; assay: Upland soil application test (Test 2); conditions: 30 g ai/a, soil spray before emergence, 30 days later
Protocol: as §1

[4] = tested on: green foxtail; assay: Upland soil application test (Test 2); conditions: 30 g ai/a, soil spray before emergence, 30 days later
Protocol: as §1

[5] = tested on: johnsongrass; assay: Upland soil application test (Test 2); conditions: 30 g ai/a, soil spray before emergence, 30 days later
Protocol: as §1

[6] = tested on: large crabgrass; assay: Upland soil application test (Test 2); conditions: 30 g ai/a, soil spray before emergence, 30 days later
Protocol: as §1

[7] = tested on: redroot pigweed; assay: Upland soil application test (Test 2); conditions: 30 g ai/a, soil spray before emergence, 30 days later
Protocol: as §1

[8] = tested on: cotton; assay: Upland soil application test (Test 2), crop injury; conditions: 30 g ai/a, soil spray before emergence, 30 days later
Protocol: as §1

[9] = tested on: peanut; assay: Upland soil application test (Test 2), crop injury; conditions: 30 g ai/a, soil spray before emergence, 30 days later
Protocol: as §1

[10] = tested on: soybean; assay: Upland soil application test (Test 2), crop injury; conditions: 30 g ai/a, soil spray before emergence, 30 days later
Protocol: as §1

[11] = tested on: Sagittaria pygmaea; assay: Treatment of soil under submerged condition, pre-emergence (Test 4); conditions: 30 g ai/a granule, 30 days later
Protocol: (§2) 1/5000-are Wagner pots were filled with soil. Seeds or tubers of barnyardgrass, Monochoria vaginalis, bulrush, Sagittaria pygmaea, Cyperus seroylnus and Eleocharis kuroguwai were seeded or planted under submerged condition. Two pairs of rice seedlings (2-3 leaf stage), which had been reared in advance, were transplanted to each pot and were allowed to germinate in a green house. Each pair consisted of two rice seedlings. One day later (before emergence of weeds), each pot was treated with a granule which had been prepared by processing a predetermined amount of the test composition in accordance with a similar method to the method described in Formulation Example 9. The state of emergence of weeds and the state of injury of rice were observed 30 days later.
(§3) In the table, the degrees of damages of the test plants and the degrees of injury of rice are shown in a similar manner to Example 2.

[12] = tested on: barnyardgrass; assay: as above; conditions: 30 g ai/a granule, 30 days later
Protocol: as §2, §3

[13] = tested on: bulrush; assay: as above; conditions: 30 g ai/a granule, 30 days later
Protocol: as §2, §3

[14] = tested on: narrowleaf waterplantain; assay: Petri dish test (Test 6); conditions: 336 h; seeds on filter paper, 25° C., 14 days; read-out: I80 (ppm)
Protocol: A filter paper was placed in each glass-made Petri dish having a diameter of 9 cm. A compound dissolved in acetone was added in a predetermined amount. The filter paper was then dried in air to remove acetone. Seeds of narrowleaf waterplantain were placed on the filter paper and 10 ml of water were poured into the Petri dish. The seeds were allowed to grow at 25° C. in a bright room. Fourteen days later, the state of growth of narrowleaf water-plantain was observed.
In the table, the degree of damages of the test plant was determined by comparing the state of growth of the plant with that of the plant in an untreated group and is shown in accordance with the following standard: […]

| Structure (SMILES) | Herbicidal effects Barnyardgrass [1] | Herbicidal effects Common lambsquarters [2] | Herbicidal effects Foxtail meadow [3] | Herbicidal effects Green foxtail [4] | Herbicidal effects Johnsongrass [5] | Herbicidal effects Large crabgrass [6] | Herbicidal effects Redroot pigweed [7] | Injury Cotton [8] | Injury Peanut [9] | Injury Soybean [10] | Herbicidal effects Sagittaria Pygmaea [11] | Herbicidal effects Barnyardgrass [12] | Herbicidal effects Bulrush [13] | IC80 [14] |
| --- | --- | --- | --- | --- | --- | --- | --- | --- | --- | --- | --- | --- | --- | --- |
| CON=Cc1ccccc1Oc1nc(OC)cc(OC)n1 [Compound No. 1, O-methyl--2-(4,6-dimethoxy-2-pyrimidinyloxy)benzaldoxime] | 5 (0-5 (Death)) | 4 (6-10 (Severe damages)) | 5 (0-5 (Death)) | 5 (0-5 (Death)) | 5 (0-5 (Death)) | 4 (6-10 (Severe damages)) | 5 (0-5 (Death)) | 0 (91-100 (No damages)) | 0 (91-100 (No damages)) | 0 (91-100 (No damages)) | 3 (11-40 (Medium damages)) | 2 (41-70 (Small damages)) | 2 (41-70 (Small damages)) | 25 µg/mL (≈ 86.4 µM) |
| COc1cc(OC)nc(Oc2ccccc2C=NOCC=Cc2ccc(F)cc2)n1 [compound 29] | 5 (0-5 (Death)) | 4 (6-10 (Severe damages)) | 4 (6-10 (Severe damages)) | 4 (6-10 (Severe damages)) | 5 (0-5 (Death)) | 5 (0-5 (Death)) | 5 (0-5 (Death)) | 0 (91-100 (No damages)) | 0 (91-100 (No damages)) | 0 (91-100 (No damages)) | 3 (11-40 (Medium damages)) | 3 (11-40 (Medium damages)) | 3 (11-40 (Medium damages)) | 8 µg/mL (≈ 19.5 µM) |
| COc1cc(OC)nc(Oc2ccccc2C=NOCc2ccccc2Cl)n1 [compound 16] | 3 (11-40 (Medium damages)) | 3 (11-40 (Medium damages)) | 3 (11-40 (Medium damages)) | 3 (11-40 (Medium damages)) | 3 (11-40 (Medium damages)) | 4 (6-10 (Severe damages)) | 3 (11-40 (Medium damages)) | 0 (91-100 (No damages)) | 0 (91-100 (No damages)) | 0 (91-100 (No damages)) | 4 (6-10 (Severe damages)) | 4 (6-10 (Severe damages)) | 3 (11-40 (Medium damages)) | 100 µg/mL (≈ 250 µM) |
| COc1cc(OC)nc(Oc2ccccc2C=NOCC=Cc2ccc(C(F)(F)F)cc2)n1 [compound 35] | 5 (0-5 (Death)) | 5 (0-5 (Death)) | 5 (0-5 (Death)) | 5 (0-5 (Death)) | 5 (0-5 (Death)) | 5 (0-5 (Death)) | 4 (6-10 (Severe damages)) | 0 (91-100 (No damages)) | 0 (91-100 (No damages)) | 0 (91-100 (No damages)) | 5 (0-5 (Death)) | 4 (6-10 (Severe damages)) | 3 (11-40 (Medium damages)) | 6 µg/mL (≈ 13.1 µM) |
| COc1cc(OC)nc(Oc2ccccc2C=NOCC=Cc2c(F)cccc2F)n1 [compound 33] | 5 (0-5 (Death)) | 4 (6-10 (Severe damages)) | 5 (0-5 (Death)) | 5 (0-5 (Death)) | 5 (0-5 (Death)) | 5 (0-5 (Death)) | 4 (6-10 (Severe damages)) | 0 (91-100 (No damages)) | 0 (91-100 (No damages)) | 0 (91-100 (No damages)) | 5 (0-5 (Death)) | 4 (6-10 (Severe damages)) | 4 (6-10 (Severe damages)) | 8 µg/mL (≈ 18.7 µM) |
| COc1cc(OC)nc(Oc2ccccc2C=NOCC=Cc2ccc(Cl)c(Cl)c2)n1 [compound 31] | 4 (6-10 (Severe damages)) | 3 (11-40 (Medium damages)) | 4 (6-10 (Severe damages)) | 4 (6-10 (Severe damages)) | 5 (0-5 (Death)) | 4 (6-10 (Severe damages)) | 3 (11-40 (Medium damages)) | 0 (91-100 (No damages)) | 0 (91-100 (No damages)) | 0 (91-100 (No damages)) | 4 (6-10 (Severe damages)) | 3 (11-40 (Medium damages)) | 3 (11-40 (Medium damages)) | 2 µg/mL (≈ 4.34 µM) |
| CCc1ccc(C=CCON=Cc2ccccc2Oc2nc(OC)cc(OC)n2)cc1 [compound 37] | 4 (6-10 (Severe damages)) | 4 (6-10 (Severe damages)) | 5 (0-5 (Death)) | 5 (0-5 (Death)) | 5 (0-5 (Death)) | 5 (0-5 (Death)) | 4 (6-10 (Severe damages)) | 0 (91-100 (No damages)) | 0 (91-100 (No damages)) | 0 (91-100 (No damages)) | 4 (6-10 (Severe damages)) | 4 (6-10 (Severe damages)) | 4 (6-10 (Severe damages)) | 2 µg/mL (≈ 4.77 µM) |
